From patent US8895695B2, “Template-fixed beta-hairpin peptidomimetics with CXCR4 antagonizing activity” (priority 2003, dated 2014) come the findings set out here.

Series [1] relates to human red blood cells (hRBC). Description: Hemolysis. It counts as cell-based. The procedure, abridged:
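Percent lysis taken as OD540 of peptide-treated sample over OD540 of the water/0.1% Triton X-100 full-lysis control, with PBS giving 0%. Peptides at 100 μM exposed to PBS-washed human RBCs (20% v/v) for 1 hour at 37° C. before centrifugation and 20-fold dilution of supernatant.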

For a further series, the target named is CXCR4 (Homo sapiens, UniProt P61073). Description: Ca2+-assay method 1: CXCR4-antagonizing activity. Format: cell-based. Also on record: expressed in transfected cells. The note with it: method 1 (Ex. 1-53), CXCR4 transfected pre-B cells, Fura-2; read-out: IC50 (nM) Ca^2+ assay. Here is the method:
2.2. Ca^2+-Assay: CXCR4-Antagonizing Activity of the Peptides.
The cells were washed free from Fura-2-AM with a platelet centrifuge and resuspended in 800 μl MSB containing 5 mM D-Glucose. The peptides to be administered were diluted to a 100 fold end concentration in MSB/0.2% PPL, and 8 μl were injected. […] Measurements were done under continuous stirring at 37° C. The signal intension was calibrated with 3 mM CaCl2/[…] lonomycin (maximal fura-2-acetoxymethylester saturation) and 10 μM MnCl2 (minimal Fura-2-acetoxymethylester saturation) and [Ca^2+]i-changes are presented in % fora-2-acetoxymethylester saturation. The rate of [Ca^2+]i-changes was calculated on the basis of the initial [Ca^2+]i-changes and plotted in dependence of chemokine concentration to obtain a sigmoidal curve and to determine the IC50 values.
Osmolarity: 310 mOsm adjusted with NaOH or HCl, adjusted with H2O or PBS.
MSB plus: 5 mM D-glucose in MSB (50 mg/50 mL).
Fura 2-acetoxymethylester: 1 mM stock solution in dimethylsulfoxide.

A further series is described as follows: in vitro. The note with it: human, HELA cells (Acc57).
Series [2] has as its system 'CCR5' cells / Hut/4-3 cells co-cultivation. Description: FIGS-Assay. It counts as cell-based. The note with it: 200 nM peptide, 48 hours of co-cultivation. Here is the method:
The assay was performed according to ref. 5, below. Stock dilutions of the peptides (10 mM) were prepared by dissolving in 10 mM Tris-HCl at room temperature. Stock solutions were kept at +4° C., light protected. Working dilutions were prepared extemporaneously by serial dilution in Phosphate Buffered Saline (PBS) and added in a final volume of 10 μl directly to the cell cultures. After 48 hours of co-cultivation the cultures were rinsed with PBS and then exposed to glutaraldehyde/formaldehyde (0.2%/2%) in PBS for five minutes. For photometric quantification the fixed cultures were subsequently incubated with ortho-nitro-phenyl-galactopyranoside (ONPG) as a β-galactosidase substrate, which was enzymatically converted into the chromophore ortho-nitrophenol (ONP). The read out is directly obtained by measuring optical density of wells at 405 nm in an iEMS 96well-plate reader.
All fine chemicals came from Merck (Darmstadt, Germany).

A short description of series [3]: Cytotoxicity assay (MTT reduction), HELA cells.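 Note: MTT reduction read as absorbance at 595 nm, blank-corrected and expressed as percent growth relative to the time-zero cell reading, triplicate wells per concentration.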 The note with it: human, HELA cells (Acc57). (In general: Formazan colour is commonly taken as a measure of viable cells.)
Protocol: (§1) Each peptide concentration was assayed in triplicate. […] Wells were then washed once with PBS and subsequently 100 μl MTT reagent (0.5 mg/mL in medium RPMI1640 and, respectively, DMEM) was added to the wells. This was incubated at 37° C. for 2 hours and subsequently the medium was aspirated and 100 μl isopropanol was added to each well. […] For each concentration averages were calculated from triplicates. The percentage of growth was calculated as follows: (OD595peptide-OD595Tz-OD595Empty well)/(OD595Tz-OD595Empty well)×100% and was plotted for each peptide concentration.
(§2) ‘CCR5’ cells were cultured in DMEM medium with 4500 mg/ml glucose, 10% fetal bovine serum (FBS), supplemented with 50 U/ml Penicillin and 50 μg/ml Streptomycin (Pen/Strept.). Hut/4-3 cells were maintained in RPMI medium, 10% FBS, supplemented with Pen/Strept. and 10 mM HEPES. HELA cells and CCRF-CEM cells were maintained in RPMI1640 plus 5% FBS, Pen/Strept and 2 mM L-Glutamine. Cos-7 cells were grown in DMEM medium with 4500 mg/ml glucose supplemented with 10% FCS, Pen/Strept. and 2 mM L-Glutamine. All cell lines were grown at 37° C. at 5% CO2.

Bridge positions count the residues as written; N and C are the ends. Square brackets hold non-standard residues; d marks the D form. Peptide text beside a SMILES is read from it. 2Nal = N[C@@H](Cc1ccc2ccccc2c1)C(=O)O; Cit = NC(=O)NCCC[C@H](N)C(=O)O

CXCR4, sequence (P61073 whole entry): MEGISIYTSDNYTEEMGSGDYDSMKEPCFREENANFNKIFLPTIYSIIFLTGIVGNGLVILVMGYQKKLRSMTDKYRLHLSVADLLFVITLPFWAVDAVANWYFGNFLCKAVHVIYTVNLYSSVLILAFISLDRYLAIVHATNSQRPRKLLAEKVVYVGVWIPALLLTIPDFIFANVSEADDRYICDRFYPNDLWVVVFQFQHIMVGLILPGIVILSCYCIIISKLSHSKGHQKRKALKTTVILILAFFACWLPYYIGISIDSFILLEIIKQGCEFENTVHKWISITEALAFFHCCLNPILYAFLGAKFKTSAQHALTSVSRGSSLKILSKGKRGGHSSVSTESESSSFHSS
Protocol for in vitro: as §1, §2

As for `CC(C)[C@@H]1NC(=O)[C@H](Cc2ccc3ccccc3c2)NC(=O)[C@H](CCCNC(=N)N)NC(=O)[C@H](CCCNC(=N)N)NC(=O)[C@@H]2CCCN2C(=O)[C@H](C(C)C)NC(=O)[C@H](CCCNC(=N)N)NC(=O)[C@H](Cc2ccccc2)NC(=O)[C@H](CCCNC(N)=O)NC(=O)[C@H](CCCNC(=N)N)NC(=O)[C@H](Cc2ccc(O)cc2)NC(=O)[C@@H]2CCCN2C(=O)[C@H]2CCCN2C(=O)[C@H](CCCCN)NC(=O)[C@H](CCCNC(N)=O)NC(=O)[C@H](Cc2ccc(O)cc2)NC1=O` [compound 22] (cyclo(YR[Cit]FRVPRR[2Nal]VY[Cit]K[dP]P)), the Hemolysis at 100 μM in series [1] was determined as 0%. Besides, the IC50 (commonly the midpoint of a concentration-inhibition curve) on CXCR4 was found to be 300 nM. Also, the 50% cytotoxic concentration (CC50) (usually the concentration at which the toxic effect on the cells reaches its halfway point) at 48 h in the series “in vitro” was 139 µM.

As to `CC(C)[C@@H]1NC(=O)[C@H](Cc2ccc3ccccc3c2)NC(=O)[C@H](CCCNC(=N)N)NC(=O)[C@H](CCCNC(=N)N)NC(=O)[C@H]2CCCN2C(=O)[C@H](Cc2ccccc2)NC(=O)[C@H](CCCNC(=N)N)NC(=O)[C@H](Cc2ccccc2)NC(=O)[C@H](CCCNC(N)=O)NC(=O)[C@H](CCCNC(=N)N)NC(=O)[C@H](Cc2ccc(O)cc2)NC(=O)[C@@H]2CCCN2C(=O)[C@H]2CCCN2C(=O)[C@H](CCCCN)NC(=O)[C@H](CCCNC(N)=O)NC(=O)[C@H](Cc2ccc(O)cc2)NC1=O` [compound 23] (cyclo(YR[Cit]FRF[dP]RR[2Nal]VY[Cit]K[dP]P)), the Hemolysis at 100 μM in series [1] came out at 1.4%. The IC50 on CXCR4 is 1550 nM. Further, it took 49 µM to reach half-maximal cytotoxicity in the series “in vitro” (CC50 at 48 h).

Turning to `CC(C)[C@@H]1NC(=O)[C@H](Cc2ccc3ccccc3c2)NC(=O)[C@H](CCCNC(=N)N)NC(=O)[C@H](CCCNC(=N)N)NC(=O)[C@@H]2CCCN2C(=O)[C@H](Cc2ccccc2)NC(=O)[C@H](CCCNC(=N)N)NC(=O)[C@H](Cc2ccccc2)NC(=O)[C@H](CCCNC(N)=O)NC(=O)[C@H](CCCNC(=N)N)NC(=O)[C@H](Cc2ccc(O)cc2)NC(=O)[C@@H]2CCCN2C(=O)[C@H]2CCCN2C(=O)[C@H](CCCCN)NC(=O)[C@H](CCCNC(N)=O)NC(=O)[C@H](Cc2ccc(O)cc2)NC1=O` [compound 24] (cyclo(YR[Cit]FRFPRR[2Nal]VY[Cit]K[dP]P)), the Hemolysis at 100 μM in series [1] came to 0.7%. For the same molecule, on CXCR4, the 50% inhibitory concentration (IC50) came out at 850 nM. In “in vitro”, this molecule had a CC50 at 48 h of 108 µM.

`CC(C)[C@@H]1NC(=O)[C@H](Cc2ccc3ccccc3c2)NC(=O)[C@H](CCCNC(=N)N)NC(=O)[C@H](CCCNC(=N)N)NC(=O)[C@H]2CCCN2C(=O)[C@H](CCCNC(N)=O)NC(=O)[C@H](CCCNC(=N)N)NC(=O)[C@H](C(C)C)NC(=O)[C@H](CCCNC(N)=O)NC(=O)[C@H](CCCNC(=N)N)NC(=O)[C@H](Cc2ccc(O)cc2)NC(=O)[C@@H]2CCCN2C(=O)[C@H]2CCCN2C(=O)[C@H](CCCCN)NC(=O)[C@H](CCCNC(N)=O)NC(=O)[C@H](Cc2ccc(O)cc2)NC1=O` [compound 25] (cyclo(YR[Cit]VR[Cit][dP]RR[2Nal]VY[Cit]K[dP]P)): the Hemolysis at 100 μM in series [1] was 0%. The IC50 at CXCR4 worked out at 1000 nM. In “in vitro”, this molecule had a CC50 at 48 h of 108 µM.

In series [1], `CC(C)[C@@H]1NC(=O)[C@H](CCCNC(=N)N)NC(=O)[C@H](Cc2ccccc2)NC(=O)[C@H](CCCNC(N)=O)NC(=O)[C@H](CCCNC(=N)N)NC(=O)[C@H](Cc2ccc(O)cc2)NC(=O)[C@@H]2CCCN2C(=O)[C@H]2CCCN2C(=O)[C@H](CCCCN)NC(=O)[C@H](CCCNC(N)=O)NC(=O)[C@H](Cc2ccc(O)cc2)NC(=O)[C@H](Cc2ccccc2)NC(=O)[C@H](Cc2ccc3ccccc3c2)NC(=O)[C@H](CCCNC(=N)N)NC(=O)[C@H](CCCNC(=N)N)NC(=O)[C@@H]2CCCN2C1=O` [compound 28] (cyclo(YR[Cit]FRVPRR[2Nal]FY[Cit]K[dP]P)) registered a Hemolysis at 100 μM of 0.9%. The IC50 at CXCR4 was 2680 nM. This molecule also gave a CC50 at 48 h in the series “in vitro” of 117 µM.

As to `CC(C)[C@@H]1NC(=O)[C@H](CCCNC(N)=O)NC(=O)[C@H](CCCNC(=N)N)NC(=O)[C@H](Cc2ccc(O)cc2)NC(=O)[C@@H]2CCCN2C(=O)[C@H]2CCCN2C(=O)[C@H](CCCCN)NC(=O)[C@H](CCCNC(N)=O)NC(=O)[C@H](Cc2ccc(O)cc2)NC(=O)[C@H](Cc2ccccc2)NC(=O)[C@H](Cc2ccc3ccccc3c2)NC(=O)[C@H](CCCNC(=N)N)NC(=O)[C@H](CCCNC(=N)N)NC(=O)[C@@H]2CCCN2C(=O)[C@H](CCCNC(N)=O)NC(=O)[C@H](CCCNC(=N)N)NC1=O` [compound 31] (cyclo(YR[Cit]VR[Cit]PRR[2Nal]FY[Cit]K[dP]P)), the Hemolysis at 100 μM in series [1] amounted to 0.1%. On CXCR4, the IC50 came out at 1470 nM. Also, in the series “in vitro”, the CC50 at 48 h turned out to be 82 µM.

`CC(C)[C@@H]1NC(=O)[C@H](CCCNC(N)=O)NC(=O)[C@H](CCCNC(=N)N)NC(=O)[C@H](Cc2ccc(O)cc2)NC(=O)[C@@H]2CCCN2C(=O)[C@H]2CCCN2C(=O)[C@H](CCCCN)NC(=O)[C@H](CCCNC(N)=O)NC(=O)[C@H](Cc2ccc(O)cc2)NC(=O)[C@H](Cc2ccccc2)NC(=O)[C@H](Cc2ccc3ccccc3c2)NC(=O)[C@H](CCCNC(=N)N)NC(=O)[C@H](CCCNC(=N)N)NC(=O)[C@H]2CCCN2C(=O)[C@H](C(C)C)NC(=O)[C@H](CCCNC(=N)N)NC1=O` [compound 32] (cyclo(YR[Cit]VRV[dP]RR[2Nal]FY[Cit]K[dP]P)) registered a Hemolysis at 100 μM in series [1] of 0.5%. The 50% inhibitory concentration (IC50) at CXCR4 turned out to be 760 nM. In addition, the CC50 at 48 h in the series “in vitro” stood at 85 µM.

`N=C(N)NCCC[C@@H]1NC(=O)[C@H](Cc2ccccc2)NC(=O)[C@H](CCCNC(N)=O)NC(=O)[C@H](CCCNC(=N)N)NC(=O)[C@H](Cc2ccc(O)cc2)NC(=O)[C@@H]2CCCN2C(=O)[C@H]2CCCN2C(=O)[C@H](CCCCN)NC(=O)[C@H](CCCNC(N)=O)NC(=O)[C@H](Cc2ccc(O)cc2)NC(=O)[C@H](Cc2ccccc2)NC(=O)[C@H](Cc2ccc3ccccc3c2)NC(=O)[C@H](CCCNC(=N)N)NC(=O)[C@H](CCCNC(=N)N)NC(=O)[C@H]2CCCN2C(=O)CNC1=O` [compound 38] (cyclo(YR[Cit]FRG[dP]RR[2Nal]FY[Cit]K[dP]P)) showed a Hemolysis at 100 μM in series [1] of 0.3%. For the same molecule, the IC50 on CXCR4 amounted to 720 nM. In “in vitro”, this molecule registered a CC50 at 48 h of 348 µM.

As for `CC(C)[C@@H]1NC(=O)[C@H](CCCNC(N)=O)NC(=O)[C@H](CCCNC(=N)N)NC(=O)[C@H](Cc2ccc(O)cc2)NC(=O)[C@@H]2CCCN2C(=O)[C@H]2CCCN2C(=O)[C@H](CCCCN)NC(=O)[C@H](CCCNC(N)=O)NC(=O)[C@H](Cc2ccc(O)cc2)NC(=O)[C@H](C(C)C)NC(=O)[C@H](Cc2ccc3ccccc3c2)NC(=O)[C@H](CCCNC(=N)N)NC(=O)[C@H](CCCNC(=N)N)NC(=O)[C@H]2CCCN2C(=O)CNC(=O)[C@H](CCCNC(=N)N)NC1=O` [compound 45] (cyclo(YR[Cit]VRG[dP]RR[2Nal]VY[Cit]K[dP]P)), in series [1], the Hemolysis at 100 μM came out at 0.4%. Further, the CC50 at 48 h in “in vitro” was 132 µM. In addition, the “FIGS % inhibition at 200 nM” value in series [2] is recorded as 65.1%.

`CC(C)[C@@H]1NC(=O)[C@H](CCCNC(=N)N)NC(=O)[C@@H]2CSSC[C@H](NC(=O)[C@H](Cc3ccc4ccccc4c3)NC(=O)[C@H](CCCNC(=N)N)NC(=O)[C@H](CCCNC(=N)N)NC(=O)CNC1=O)C(=O)N[C@@H](Cc1ccc(O)cc1)C(=O)N[C@@H](CCCNC(N)=O)C(=O)N[C@@H](CCCCN)C(=O)N1CCC[C@@H]1C(=O)N1CCC[C@H]1C(=O)N[C@@H](Cc1ccc(O)cc1)C(=O)N[C@@H](CCCNC(=N)N)C(=O)N[C@@H](CCCNC(N)=O)C(=O)N2` [compound 53] (cyclo(YR[Cit]CRVGRR[2Nal]CY[Cit]K[dP]P); disulfide 4-11): the Hemolysis at 100 μM in series [1] came to 0.2%. In addition, on CXCR4, the IC50 worked out at 57.8 nM. The CC50 at 48 h in series [3] came to 86 µM. Also, the “FIGS % inhibition at 200 nM” value in series [2] amounted to 91.8%.
